Data taken from patent EP0874850B1, “NOVEL TRICYCLIC COMPOUNDS FOR THE INHIBITION OF THE ICE/CED-3 PROTEASE FAMILY OF ENZYMES” (Idun Pharmaceuticals, Inc., priority 1996, dated 1998).
Residues, ends and D or L forms follow the SMILES beside them. *: point of attachment. Cbz = O=C(OCc1ccccc1)*; CH2F = FC*

What was measured:
Assay type in all cases: biochemical
CPP32 [1] = experiment: Determination of dissociation constant Ki and irreversible rate constant k3 for irreversible inhibitors (CPP32)
Text: (§1) For the irreversible inhibition of a ICE/ced-3 Family Protease enzyme with a competitive irreversible inhibitor; using the model represented by the following formulas: [drawing 15] [drawing 16] The product formation at time t may be expressed as: [formula] where E, I, EI and E-I denote the active enzyme, inhibitor, non-covalent enzyme-inhibitor complex and covalent enzyme-inhibitor adduct, respectively. The Ki value is the overall dissociation constant of the reversible binding steps, and k3 is the irreversible rate constant. The [S] and Ks values are the substate concentration and dissociation constant of the substrate bound to the enzyme, respectively. [E]^T is the total enzyme concentration.
(§2) The above equations were used to determine the Ki and k3 values of a given inhibitor bound to a ICE/ced-3 family protease. Thus, a continuous assay was run for sixty minutes at various concentrations of the inhibitor and the substrate. The assay was formulated essentially the same as described above for generating the data in Table 1, except that the reaction was initiated by adding the enzyme to the substrate-inhibitor mixture. The Ki and k3 values were obtained by simulating the product AMC formation as a function of time according to Equation I. The results of this second assay are set forth below in Table 2. […]

MCH-5 [2] = experiment: Determination of dissociation constant Ki and irreversible rate constant k3 for irreversible inhibitors (Mch5)
Text: as §1, §2

mICE [3] = experiment: Determination of dissociation constant Ki and irreversible rate constant k3 for irreversible inhibitors (ICE)
Text: as §1, §2

MCH-2 [4] = experiment: Determination of dissociation constant Ki and irreversible rate constant k3 for irreversible inhibitors (Mch2)
Text: as §1, §2

MCH-5 [5] = experiment: Fluorescence enzyme assay, determination of IC50 values (Mch5); settings: 30 minutes preincubation at room temperature; substrate Acetyl-Asp-Glu-Val-Asp-amino-4-methylcoumarin
Description: (§3) The substrate is Acetyl-Tyr-Val-Ala-Asp-amino-4-methylcoumarin (AMC) for the ICE assay and Acetyl-Asp-Glu-Val-Asp-amino-4-methylcoumarin for the CPP32, Mch2, Mch3 and Mch5 assays. Enzyme reactions were run in ICE buffer (25 mM HEPES, 1 mM EDTA, 0.1% CHAPS, 10% sucrose, pH 7.5) containing 2 mM DTT at room temperature in duplicate.
(§4) The enzyme and the compound of Formula 1 to be assayed were allowed to preincubate in the microtitre plate wells for 30 minutes at room temperature prior to the addition of substrate to initiate the reaction. Fluorescent AMC product formation was monitored for one hour at room temperature by measuring the fluorescence emission at 460 nm using an excitation wavelength of 360 nm. […]
(§5) The reference compound for this assay was Cbz-ValAlaAsp-H and the values are denoted in Table 1 as "Reference".

mICE [6] = experiment: Fluorescence enzyme assay, determination of IC50 values (ICE); settings: recombinant enzyme; 30 minutes preincubation at room temperature; substrate Acetyl-Tyr-Val-Ala-Asp-amino-4-methylcoumarin
Description: as §3, §4, §5

MCH-3 = experiment: Fluorescence enzyme assay, determination of IC50 values (Mch3); settings: 30 minutes preincubation at room temperature; substrate Acetyl-Asp-Glu-Val-Asp-amino-4-methylcoumarin
Description: as §3, §4, §5

CPP32 [7] = experiment: Fluorescence enzyme assay, determination of IC50 values (CPP32); settings: recombinant enzyme; 30 minutes preincubation at room temperature; substrate Acetyl-Asp-Glu-Val-Asp-amino-4-methylcoumarin
Description: as §3, §4, §5

MCH-2 [8] = experiment: Fluorescence enzyme assay, determination of IC50 values (Mch2); settings: 30 minutes preincubation at room temperature; substrate Acetyl-Asp-Glu-Val-Asp-amino-4-methylcoumarin
Description: as §3, §4, §5

[9] = continuous assay for sixty minutes, reaction initiated by adding the enzyme

| k3/Ki (CPP32 [1]; Reference) | Ki (CPP32 [1]; [9]) | k3/Ki (MCH-5 [2]; Reference) | Ki (MCH-5 [2]; [9]) | k3/Ki (mICE [3]; Reference) | Ki (mICE [3]; [9]) | k3/Ki (MCH-2 [4]; Reference) | Ki (MCH-2 [4]; [9]) | IC50 (MCH-5 [5]) | IC50 (mICE [6]) | IC50 (MCH-3) | IC50 (CPP32 [7]) | IC50 (MCH-2 [8]) | Compound |
| --- | --- | --- | --- | --- | --- | --- | --- | --- | --- | --- | --- | --- | --- |
| 12,200 M^-1s^-1 | 820 nM | 83,300 M^-1s^-1 | 18 nM | 214,000 M^-1s^-1 | 15 nM | 2,950 M^-1s^-1 | 594 nM | – | – | – | – | – | Cbz-Val-Ala-Asp-CH2F [Reference] |
| – | – | – | – | – | – | – | – | 2960 nM | 64 nM | > 10000 nM | 47000 nM | > 10000 nM | CC(C)[C@H](NC(=O)OCc1ccccc1)C(=O)N[C@@H](C)C(=O)N[C@H](C=O)CC(=O)O [Ref., Cbz-ValAlaAsp-H] (Cbz-Val-Ala-Asp-aldehyde) |
